# Experimental data from patent US11447503B2, “Pyridine carbamates and their use as GLUN2B receptor modulators” (JANSSEN PHARMACEUTICA NV, priority 2019, dated 2022).
# Target: human GluN1/GluN2B NMDA receptors (Homo sapiens, UniProt Q05586+Q13224)
# Experiment: Cell-based calcium flux (FLIPR) assay on cloned human GluN1/GluN2B ion channels expressed in mammalian cells
# Details: standard assay; glutamate ~EC40, 10 μM glycine; stable Tet-On cell line
# Method: 5.3. Biological Assays: Effect of Compounds of Formula (I) on Cloned Human GluN1/GluN2B Ion Channels Expressed in Mammalian Cells
# NMDA receptors are ion channels that are highly permeable to Ca^2+ ions, rendering it possible to monitor NMDA receptor function using cell-based calcium flux assay. In this assay, co-agonists glutamate and glycine are added to cells heterologously expressing human GluN1/GluN2B NMDA receptors to initiate cellular Ca^2+ influx. The time course of the changes in intracellular calcium is measured using a fluorescent dye and a FLIPR (Fluorometric Imaging Plate Reader) device.
# Twenty four hours before measurements, the expression of the NMDA receptors in the stable cell line is induced with Tet-On inducible system in the presence of a non-selective NMDA receptor blocker. On the day of the experiment, cell culture media is carefully washed and the cells are loaded with Calcium 5 Dye Kit (Molecular Devices) in dye loading buffer containing 137 mM NaCl, 4 mM KCl, 2 mM CaCl2, 0.5 mM MgCl2 (standard assay) or 1.5 mM MgCl2 (HTS assay), 10 mM HEPES and 5 mM D-glucose; pH 7.4. After 1 h incubation at the room temperature, the dye is washed away with the assay buffer (137 mM NaCl (standard assay) or 150 mM (HTS assay), 4 mM KCl (standard assay) or 3 mM (HTS assay), 2 mM CaCl2, 0.01 mM EDTA, 10 mM HEPES and 5 mM D-glucose; pH 7.4) In the FLIPR TETRA reader, various concentrations of the test compounds are added to the cells for 5 min while fluorescence is monitored to detect potential agonist activity. Next, co-agonists, glutamate and glycine are added for another 5 minutes. The concentration of glutamate corresponding to ˜EC40 (standard assay) or EC40 (HTS assay) is used to maximize the assay's signal window and ability to detect NMDA receptor antagonists and negative allosteric modulators. A saturating concentration (10 μM) of glycine is also present in the assay. A non-selective NMDA receptor antagonist, (+)MK-801 is used as a positive control for antagonist activity. The fluorescent signal in the presence of test compounds is quantified and normalized to the signal defined by the appropriate control wells.
# human GluN1/GluN2B NMDA receptors, sequence (Q13224 27-1484, other chains not shown): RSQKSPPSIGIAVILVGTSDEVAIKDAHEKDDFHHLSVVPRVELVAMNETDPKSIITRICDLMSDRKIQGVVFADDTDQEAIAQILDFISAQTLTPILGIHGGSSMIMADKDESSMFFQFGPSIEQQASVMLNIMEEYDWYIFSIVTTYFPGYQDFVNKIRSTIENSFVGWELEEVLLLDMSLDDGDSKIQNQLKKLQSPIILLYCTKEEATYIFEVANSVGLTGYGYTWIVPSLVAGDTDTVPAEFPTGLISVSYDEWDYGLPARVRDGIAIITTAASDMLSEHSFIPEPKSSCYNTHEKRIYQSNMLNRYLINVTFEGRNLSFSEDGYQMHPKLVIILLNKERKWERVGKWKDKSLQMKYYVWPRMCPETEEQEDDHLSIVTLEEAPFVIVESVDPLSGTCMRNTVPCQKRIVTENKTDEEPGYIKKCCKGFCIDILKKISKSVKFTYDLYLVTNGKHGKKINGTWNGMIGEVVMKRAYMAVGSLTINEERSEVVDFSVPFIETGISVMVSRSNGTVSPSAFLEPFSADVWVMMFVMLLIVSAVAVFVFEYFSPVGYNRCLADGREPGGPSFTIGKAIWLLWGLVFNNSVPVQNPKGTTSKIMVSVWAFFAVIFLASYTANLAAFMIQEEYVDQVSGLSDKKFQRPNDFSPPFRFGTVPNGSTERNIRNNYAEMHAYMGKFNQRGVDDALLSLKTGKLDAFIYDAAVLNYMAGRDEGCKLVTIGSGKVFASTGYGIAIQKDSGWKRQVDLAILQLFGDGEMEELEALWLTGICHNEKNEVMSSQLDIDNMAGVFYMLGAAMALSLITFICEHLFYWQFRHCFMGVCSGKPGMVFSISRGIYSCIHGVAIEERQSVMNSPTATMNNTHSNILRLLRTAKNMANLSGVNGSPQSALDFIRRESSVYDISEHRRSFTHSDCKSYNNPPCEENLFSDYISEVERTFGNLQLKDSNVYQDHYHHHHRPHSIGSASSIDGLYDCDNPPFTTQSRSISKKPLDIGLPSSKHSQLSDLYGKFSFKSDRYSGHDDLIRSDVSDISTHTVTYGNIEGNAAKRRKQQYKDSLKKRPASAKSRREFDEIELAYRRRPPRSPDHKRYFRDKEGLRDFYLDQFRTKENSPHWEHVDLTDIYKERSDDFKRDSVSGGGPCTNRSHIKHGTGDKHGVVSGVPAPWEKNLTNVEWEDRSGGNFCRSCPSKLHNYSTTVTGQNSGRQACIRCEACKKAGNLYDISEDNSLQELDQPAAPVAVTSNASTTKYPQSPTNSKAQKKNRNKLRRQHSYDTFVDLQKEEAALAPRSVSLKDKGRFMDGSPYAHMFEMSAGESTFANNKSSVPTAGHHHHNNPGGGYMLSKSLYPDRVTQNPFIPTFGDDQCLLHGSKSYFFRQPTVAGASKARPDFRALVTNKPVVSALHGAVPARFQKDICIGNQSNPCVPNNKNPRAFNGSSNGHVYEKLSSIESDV
row,IC50 [nM],SMILES
1,20,"CC1COC(=O)N1Cc1cncc(-c2ccc(F)c(OC(F)F)c2)c1 (racemic) [Example 5, (R/S)-3-[[5-[3-(Difluoromethoxy)-4-fluoro-phenyl]-3-pyridyl]methyl]-4-methyl-oxazolidin-2-one]"
2,31,"CC1COC(=O)N1Cc1cncc(-c2ccc(F)c(C(F)F)c2)c1 (racemic) [Example 25, (R/S)-3-[[5-[3-(Difluoromethyl)-4-fluoro-phenyl]-3-pyridyl]methyl]-4-methyl-oxazolidin-2-one]"
3,28,"CC1CN(Cc2cncc(-c3ccc(F)c(C(F)F)c3)c2)C(=O)O1 (racemic) [Example 26, (R/S)-3-[[5-[3-(Difluoromethyl)-4-fluoro-phenyl]-3-pyridyl]methyl]-5-methyl-oxazolidin-2-one]"
4,29,"CC(C)C1CN(Cc2cncc(-c3ccc(F)c(C(F)F)c3)c2)C(=O)O1 (racemic) [Example 35, (R/S)-3-[[5-[3-(Difluoromethyl)-4-fluoro-phenyl]-3-pyridyl]methyl]-5-isopropyl-oxazolidin-2-one]"
5,113,"Cc1ncc(-c2ccc(F)c(C(F)F)c2)cc1CN1C(=O)OCC1C (racemic) [Example 95, (R/S)-3-[[5-[3-(difluoromethyl)-4-fluoro-phenyl]-2-methyl-3-pyridyl]methyl]-4-methyl-oxazolidin-2-one]"
6,17,"CC1CN(Cc2cncc(-c3ccc(F)c(OC(F)F)c3)c2)C(=O)O1 (single isomer, unassigned) [Example 7, (S*)-3-[[5-[3-(Difluoromethoxy)-4-fluoro-phenyl]-3-pyridyl]methyl]-5-methyl-oxazolidin-2-one]"
7,11,"CC1CN(Cc2cncc(-c3ccc(F)c(OC(F)F)c3)c2)C(=O)O1 (single isomer, unassigned) [Example 8, (R*)-3-[[5-[3-(Difluoromethoxy)-4-fluoro-phenyl]-3-pyridyl]methyl]-5-methyl-oxazolidin-2-one]"
8,14,"C[C@@H]1CN(Cc2cncc(-c3ccc(F)c(C(F)F)c3)c2)C(=O)O1 (single isomer, unassigned) [Example 28, (R*)-3-[[5-[3-(Difluoromethyl)-4-fluoro-phenyl]-3-pyridyl]methyl]-5-methyl-oxazolidin-2-one]"
9,31,"CC(C)C1CN(Cc2cncc(-c3ccc(F)c(C(F)F)c3)c2)C(=O)O1 (single isomer, unassigned) [Example 36, (R*)-3-[[5-[3-(Difluoromethyl)-4-fluoro-phenyl]-3-pyridyl]methyl]-5-isopropyl-oxazolidin-2-one]"
10,50,"CC(C)C1CN(Cc2cncc(-c3ccc(F)c(C(F)F)c3)c2)C(=O)O1 (single isomer, unassigned) [Example 37, (S*)-3-[[5-[3-(Difluoromethyl)-4-fluoro-phenyl]-3-pyridyl]methyl]-5-isopropyl-oxazolidin-2-one]"

# Second part, the compound before the results:
row,SMILES,IC50 [nM]
1,"CC1CN(Cc2cncc(-c3ccc(F)c(OC(F)F)c3)c2)C(=O)O1 (racemic) [Example 6, (R/S)-3-[[5-[3-(Difluoromethoxy)-4-fluoro-phenyl]-3-pyridyl]methyl]-5-methyl-oxazolidin-2-one]",15
2,"CC(C)C1CN(Cc2cncc(-c3ccc(F)c(OC(F)F)c3)c2)C(=O)O1 (racemic) [Example 14, (R/S)-3-[[5-[3-(Difluoromethoxy)-4-fluoro-phenyl]-3-pyridyl]methyl]-5-isopropyl-oxazolidin-2-one]",97
3,"CC(c1cncc(-c2ccc(F)c(C(F)F)c2)c1)N1CCCOC1=O (racemic) [Example 61, (R/S)-3-[1-[5-[3-(difluoromethyl)-4-fluoro-phenyl]-3-pyridyl]ethyl]-1,3-oxazinan-2-one]",323
4,"Cc1ncc(-c2ccc(F)c(OC(F)F)c2)cc1CN1CC(C)OC1=O (racemic) [Example 80, (R/S)-3-[[5-[3-(Difluoromethoxy)-4-fluoro-phenyl]-2-methyl-3-pyridyl]methyl]-5-methyl-oxazolidin-2-one]",22
5,"Cc1ncc(-c2ccc(F)c(OC(F)F)c2)cc1CN1C(=O)OCC1C (racemic) [Example 81, (R/S)-3-[[5-[3-(Difluoromethoxy)-4-fluoro-phenyl]-2-methyl-3-pyridyl]methyl]-4-methyl-oxazolidin-2-one]",79
6,"Cc1ncc(-c2ccc(F)c(C(F)F)c2)cc1CN1CC(C)OC1=O (racemic) [Example 94, (R/S)-3-[[5-[3-(Difluoromethyl)-4-fluoro-phenyl]-2-methyl-3-pyridyl]methyl]-5-methyl-oxazolidin-2-one]",21
7,"CC(C)C1CN(Cc2cncc(-c3ccc(F)c(OC(F)F)c3)c2)C(=O)O1 (single isomer, unassigned) [Example 15, (R*)-3-[[5-[3-(Difluoromethoxy)-4-fluoro-phenyl]-3-pyridyl]methyl]-5-isopropyl-oxazolidin-2-one]",45
8,"CC(C)C1CN(Cc2cncc(-c3ccc(F)c(OC(F)F)c3)c2)C(=O)O1 (single isomer, unassigned) [Example 16, (S*)-3-[[5-[3-(Difluoromethoxy)-4-fluoro-phenyl]-3-pyridyl]methyl]-5-isopropyl-oxazolidin-2-one]",52
9,"O=C1OC(CN2CCOCC2)CN1Cc1cncc(-c2ccc(F)c(OC(F)F)c2)c1 (single isomer, unassigned) [Example 18, (R*)-3-[[5-[3-(Difluoromethoxy)-4-fluoro-phenyl]-3-pyridyl]methyl]-5-(morpholinomethyl)oxazolidin-2-one]",751
10,"O=C1OC(CN2CCOCC2)CN1Cc1cncc(-c2ccc(F)c(OC(F)F)c2)c1 (single isomer, unassigned) [Example 19, (S*)-3-[[5-[3-(Difluoromethoxy)-4-fluoro-phenyl]-3-pyridyl]methyl]-5-(morpholinomethyl)oxazolidin-2-one]",1350
11,"O=C1OC(CN2CCOCC2)CN1Cc1cncc(-c2ccc(F)c(C(F)F)c2)c1 (single isomer, unassigned) [Example 40, (R*)-3-[[5-[3-(Difluoromethyl)-4-fluoro-phenyl]-3-pyridyl]methyl]-5-(morpholinomethyl)oxazolidin-2-one]",205
12,"O=C1OC(CN2CCOCC2)CN1Cc1cncc(-c2ccc(F)c(C(F)F)c2)c1 (single isomer, unassigned) [Example 41, (S*)-3-[[5-[3-(Difluoromethyl)-4-fluoro-phenyl]-3-pyridyl]methyl]-5-(morpholinomethyl)oxazolidin-2-one]",751
13,"Cc1ncc(-c2ccc(F)c(OC(F)F)c2)cc1CN1C(=O)OCC1C (single isomer, unassigned) [Example 82, (R*)-3-[[5-[3-(Difluoromethoxy)-4-fluoro-phenyl]-2-methyl-3-pyridyl]methyl]-4-methyl-oxazolidin-2-one]",66
14,"Cc1ncc(-c2ccc(F)c(OC(F)F)c2)cc1CN1C(=O)OCC1C (single isomer, unassigned) [Example 83, (S*)-3-[[5-[3-(Difluoromethoxy)-4-fluoro-phenyl]-2-methyl-3-pyridyl]methyl]-4-methyl-oxazolidin-2-one]",30
15,"Cc1ncc(-c2ccc(F)c(OC(F)F)c2)cc1CN1CC(C)OC1=O (stereo in doubt) [Example 86, (5R)-3-[[5-[3-(Difluoromethoxy)-4-fluoro-phenyl]-2-methyl-3-pyridyl]methyl]-5-methyl-oxazolidin-2-one]",20
